Experimental data published in ChEMBL document CHEMBL1156760, “Synthesis and biological evaluation of new nanomolar competitive inhibitors of Helicobacter pylori type II dehydroquinase. Structural details of the role of the aromatic moieties with essential residues” (J Med Chem, 2010).

Target: T1, 3-dehydroquinate dehydratase (Helicobacter pylori (strain ATCC 700392 / 26695) (Campylobacterpylori), UniProt Q48255)
T1 sequence (Q48255 whole entry): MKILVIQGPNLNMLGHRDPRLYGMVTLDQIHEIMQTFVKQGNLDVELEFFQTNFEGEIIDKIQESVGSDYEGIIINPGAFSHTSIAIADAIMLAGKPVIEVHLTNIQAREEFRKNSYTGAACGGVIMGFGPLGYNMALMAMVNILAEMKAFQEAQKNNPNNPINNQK
Assay: Inhibition of Helicobacter pylori DHQ2 by UV spectroscopy

Q: `O=C(O)[C@]1(O)C=C(OCc2cc3ccccc3s2)[C@@H](O)[C@H](O)C1` was tested. Which Ki did it give?
A: 132 nM
